According to patent US6355409B1, “Tagatose as a cytoprotective supplement for the removal and/or storage of organs to reduce reperfusion injury” (Biospherics Incorporated, priority 2000, dated 2002):

Columns and labels:
[1] = high concentrations; cited from earlier work
organ, e.g., a liver = assay: Removal and/or storage of organ in tagatose-containing organ storage solution (Examples 1-3); parameters: species or system human; details: tagatose solution containing about 0.36% by weight of tagatose, with nutrients and electrolytes
Excerpt: After the organ, e.g., a liver is accessed by surgery on a human subject, three liters of chilled tagatose solution containing about 0.36% by weight of tagatose are used to flush the blood from it and to cool the organ while still on the body. The tagatose solution contains the amounts of nutrients and electrolytes common to present day storage solutions, such as Viaspan. […] The organ is then removed and placed into a chilled sterile container, holding more of the tagatose solution, for refrigerated storage until the transplant occurs. The ischemia time is shorter in this procedure than in Example 1. The donor organ is removed and perfused with tagatose solution containing about 0.36% by weight of tagatose that, again, contains the requisite nutrients and electrolytes. The organ is then placed into a sterile container that contains more of the same tagatose solution. That sterile container is placed into two more sterile containers and is then placed on ice for immediate transit to the organ recipient. The organ is removed as described in Example 1. It is flushed and perfused with tagatose solution, containing about 0.36% by weight of tagatose, and containing the requisite nutrients and electrolytes. The organ is placed in a sterile container with more of the same tagatose solution. Two protocols may be used for storage a. […]

liver cells = assay: Exposure of organ cells to tagatose, ATP level; format: cell-based; details: exposure of organ cells such as liver cells to tagatose

CC(=O)N(O)CCCCCNC(=O)CCC(=O)N(O)CCCCCNC(=O)CCC(=O)N(O)CCCCCN [deferoxamine]
toxicity [1]: toxic at high concentrations

O=C(CO)[C@@H](O)[C@@H](O)[C@H](O)CO [tagatose]
reperfusion injury of the organ (organ, e.g., a liver): reduces reperfusion injury | ATP in organ cells (liver cells): massively decreases ATP
